Results as given in patent publication US11883423B2, “Nucleobase analogue derivatives and their applications” (BOARD OF REGENTS, THE UNIVERSITY OF TEXAS SYSTEM, priority 2014, dated 2024).

What was measured:
[1] = tested on: NCI-56 human tumor cell lines; conditions: cited from earlier work
Panc-02 tumors = test: Antitumor activity against s.c. Panc-02 tumors in C57BL/6 mice; type: in vivo; conditions: i.p., ~0.1 mmole/kg, twice a week, up to 6 doses
Procedure: Therefore, the in vivo anti-tumor activity of Gem-DHA was also evaluated and compared to that of DHA alone in male C57BL/6 mice (6-8 weeks, Charles River) with subcutaneously (s.c.)
implanted Panc-02 tumors. Briefly, 1×10^6 cells were s.c. injected in the right flank of mice. Sixteen days later, mice were randomized into groups (n=12) and i.p. injected with Gem-DHA (˜55 mg/kg, […]) or DHA (˜33 mg/kg, ˜0.1 mmole/kg). Mice in the control group were i.p. injected with sterile 5% mannitol (w/v). Gem-DHA and DHA was dissolved in a Tween 80/ethanol/water solution with 5% (w/v) of mannitol. The doses were based on the average weight of mice in the same group on the first day of injection. The treatment was repeated twice a week for up to 6 doses. Tumor growth was monitored using a digital caliper, and tumor volume was calculated based on the longest diameter (L1) and the shortest diameter (L2) of each tumor using the equation of V=½×(L1×L2×L2).

Panc-02 tumor cells = test: Cytotoxicity after 4 h co-incubation, MTT test; type: cell-based, mouse; conditions: Panc-02 cells, at concentrations of more than 80 μM
Procedure: The mechanisms underlying the cytotoxicity of the Gem-DHA may be different from that of gemcitabine. For example, in cell culture studies, Panc-02 cells were seeded into 96-well plates (1,500 cells per well) and incubated at 37° C., 5% CO2 for 24 h. They were then co-incubated with various concentrations of Gem-DHA, gemcitabine HCl alone, or DHA alone for 4 h, and cell viability was determined using an MTT test.

MIA PaCa-2 cells = test: Cytotoxicity of Gem-ARA, MTT assay, MIA PaCa-2 cells; type: cell-based, human; conditions: up to 72 h, mean ± SD (n>3)
Procedure: (§1) To understand the effect of the omega-3 polyunsaturated fatty acid nature of the DHA (i.e., the docosahexaedecanoyl group) in the Gem-DHA on its cytotoxicity against tumor cells, gemcitabine was also conjugated to arachidonic acid, an omega-6 polyunsaturated fatty acid, to synthesize 4-(N)-arachidonyl gemcitabine (Gem-ARA) (FIG. 4). Human pancreatic cancer cells (MIA PaCa-2 or BxPC-3) were seeded (3,000/well) in 96-well plates. After overnight incubation, cells were treated with various concentrations of gemcitabine HCl or Gem-ARA at 37° C., 5% CO2 for up to 72 h. Gemcitabine HCl was dissolved in phosphate buffered saline (PBS, pH 7.4, 10 mM), and Gem-ARA was dissolved in DMSO. The maximum amount of DMSO added per well was 0.9 μL, which was found non-toxic. The number of viable cells after the incubation was determined using an MTT assay as described above. The 50% inhibition concentration (IC50) values were estimated using GraphPad prism 5 parameters curve fittings.

BxPC-3 cells = test: Cytotoxicity of Gem-ARA, MTT assay, BxPC-3 cells; type: cell-based, human; conditions: up to 72 h, mean ± SD (n>3)
Procedure: as §1

[2] = tested on: MIA PaCa-2, Panc-1 cells, CCRF-CEM, B16-F10, and TC-1; conditions: various tumor cell lines in culture; cited from earlier work
pre-established tumors = conditions: solubilized in a Tween 80 solution; cited from earlier work
[3] = Aqueous solubility measured directly (direct method); type: physicochemical; conditions: mean ± SD (n=3)
Procedure: (§2) In order to validate the method of Beall et al. (Id.), the aqueous solubility of 4-(N)-stearoyl gemcitabine, another lipophilic gemcitabine conjugate (Sloat BR et al. Int J Pharm. 2011, 409(1-2), 278-288), which is stable in water, was measured directly (i.e., direct method) or using the indirect method reported by Beall et al. (Beall HD et al. International Journal of Pharmaceutics. 1993, 93, 37-47).

[4] = Aqueous solubility by the indirect method (IPM/water partitioning, Beall et al.); type: physicochemical; conditions: mean ± SD (n=3)
Procedure: The aqueous solubility of Gem-DHA was determined following an indirect method according to Beall et al. with minimal modifications (Beall HD et al. International Journal of Pharmaceutics. 1993, 93, 37-47). Briefly, an excess amount of Gem-DHA was added to 100 μl of IPM in a crimp-sealed amber glass vials under nitrogen and was stirred vigorously at room temperature for 24 h, protected from light. After the stirring was stopped, the mixture was left to stand for an additional 24 h for equilibration. The content of the vial was centrifuged (14,000 rpm, 10 min) and the supernatant was transferred into a different tube. Aliquots of the saturated IPM solution were used to measure the Gem-DHA concentration before partitioning (A1) using HPLC (after proper dilution with methanol). Then, water was added to the IPM saturated solution in a volume ratio of 10:1. The two phases were mixed by vortexing for 5 min, left to stand for 15 min, then centrifuged (14,000 rpm, 15 min) to collect the IPM layer. Gem-DHA concentration in the IPM layer (A2) was again measured using HPLC after partitioning. The following equation was used to calculate the partition coefficient (KIPM/water) (Beall HD et al. International Journal of Pharmaceutics. 1993, 93, 37-47):
[formula] where Vwater is the volume of the water phase and VIPM is the volume of IPM. The value of (Vwater/VIPM) was 10.
The aqueous solubility (Sw) of Gem-DHA was determined using the following equation (Id.):
[formula] where SIPM is the solubility of Gem-DHA in IPM.
as §2

[5] = tested on: advanced pancreatic cancer; conditions: in combination with gemcitabine; cited from earlier work

Compound: CC/C=C\C/C=C\C/C=C\C/C=C\C/C=C\C/C=C/CCC(=O)O[C@@H](C(=O)O[C@H]1C[C@@]2(O)[C@@H](OC(=O)c3ccccc3)C3[C@](C)(C(=O)[C@H](OC(C)=O)C(=C1C)C2(C)C)[C@@H](O)C[C@H]1OC[C@@]31OC(C)=O)[C@@H](NC(=O)c1ccccc1)c1ccccc1 (some centres unmarked) [DHA conjugated to paclitaxel]
- Effect of DHA conjugation on cytotoxicity [1]: lowers the cytotoxicity of the paclitaxel

Compound: CC/C=C\C/C=C\C/C=C\C/C=C\C/C=C\C/C=C\CCC(=O)O [DHA, Cis-4,7,10,13,16,19-docosahexaenoic acid, reference compound]
- Inhibition of Panc-02 tumor growth (Panc-02 tumors): did not significantly inhibit the tumor growth
- Cytotoxicity after 4 h of co-incubation (Panc-02 tumor cells): did not show any significant cytotoxicity

Compound: CCCCC/C=C\C/C=C\C/C=C\C/C=C\CCCC(=O)Nc1ccn([C@@H]2O[C@H](CO)[C@@H](O)C2(F)F)c(=O)n1 [Gem-ARA, 4-(N)-Arachidonoyl Gemcitabine]
- IC50 (MIA PaCa-2 cells): 64.3 ± 42.7 nM
- IC50 (BxPC-3 cells): 1.93 ± 3.8 nM

Compound: CCCCCCCCCCCCCCCCCC(=O)Nc1ccn([C@@H]2OC(CO)C(O)C2(F)F)c(=O)n1 (some centres unmarked) [Stearoyl gemcitabine, 4-(N)-stearoyl gemcitabine]
- Cytotoxicity compared with gemcitabine [2]: less cytotoxic than gemcitabine alone
- Inhibition of tumor growth compared with gemcitabine (pre-established tumors): not more active than gemcitabine alone
- Water Solubility, Direct method [3]: 1.38 ± 1.6 µg/mL
- KIPM/water (partition coefficient) ([4]; IPM/water, room temperature): 35.33 ± 2.7
- Water Solubility, Indirect method ([4]; estimated from solubility in IPM and KIPM/water): 1.39 ± 0.1 µg/mL

Compound: C#Cc1cccc(Nc2ncnc3cc(OCCOC)c(OCCOC)cc23)c1 [erlotinib]
- Prolongation of median survival [5]: 10 days
